The target in test [1] is human FPR1 (Homo sapiens (Human), UniProt P21462). As to the kind of experiment: FPR1 cyclic adenosine monophosphate (cAMP) assay. It is filed as cell-based. Conditions: CHO cells overexpressing human FPR1; forskolin 10 µM; inhibition of cAMP production; read-out: hFPR1 cAMP EC50. An outline of the steps: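 CHO cells overexpressing human FPR1 (4,000 cells/well) stimulated with 10 µM forskolin plus 200 µM IBMX in the presence of compound (0.020 nM–100 µM, 1% DMSO), 30 min at room temperature. Intracellular cAMP measured by HTRF. Inhibition of cAMP production fitted to a 4-parameter logistic equation.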

Test [2] deals with human FPR2 (Homo sapiens (Human), UniProt P25090). The test is described as follows: FPR2 cyclic adenosine monophosphate (cAMP) assay. It is filed as cell-based. Conditions: CHO cells overexpressing human FPR2; forskolin 5 µM; inhibition of cAMP production; read-out: hFPR2 cAMP2 EC50. The gist of the method: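 CHO cells overexpressing human FPR2 (2,000/well) incubated 30 min at room temperature with compound (0.020 nM–100 µM, 1% DMSO), 5 µM forskolin and 200 µM IBMX.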

In US20230348426A1, “OXOPYRROLIDINE FPR2 AGONISTS” (Bristol-Myers Squibb Company, priority 2020, published 2023) one finds EC50 data, which are given here for 44 molecules.

Usually EC50 stands for the midpoint of the concentration-response curve.

Structures are written as SMILES.

human FPR1, sequence (P21462 whole entry): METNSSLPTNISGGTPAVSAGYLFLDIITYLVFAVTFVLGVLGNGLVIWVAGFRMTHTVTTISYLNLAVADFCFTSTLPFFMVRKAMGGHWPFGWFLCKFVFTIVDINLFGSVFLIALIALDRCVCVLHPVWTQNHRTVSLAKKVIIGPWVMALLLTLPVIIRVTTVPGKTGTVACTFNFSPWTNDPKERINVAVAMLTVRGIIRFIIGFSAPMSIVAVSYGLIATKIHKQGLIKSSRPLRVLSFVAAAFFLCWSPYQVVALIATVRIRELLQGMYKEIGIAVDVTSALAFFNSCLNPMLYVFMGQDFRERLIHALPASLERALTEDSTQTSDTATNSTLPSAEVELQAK
human FPR2, sequence (P25090 whole entry): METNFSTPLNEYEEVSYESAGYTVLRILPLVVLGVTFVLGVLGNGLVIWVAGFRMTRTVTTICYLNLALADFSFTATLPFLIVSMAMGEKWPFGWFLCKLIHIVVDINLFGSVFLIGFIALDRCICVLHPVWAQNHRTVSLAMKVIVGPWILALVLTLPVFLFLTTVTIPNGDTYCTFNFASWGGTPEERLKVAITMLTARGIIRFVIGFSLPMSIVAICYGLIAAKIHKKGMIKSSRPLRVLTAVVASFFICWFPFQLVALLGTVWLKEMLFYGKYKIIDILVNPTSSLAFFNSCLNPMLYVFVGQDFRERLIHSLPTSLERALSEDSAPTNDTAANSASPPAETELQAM

Turning to `COc1cc(F)c([C@@H]2CN(c3cccn(CC(C)O)c3=O)C(=O)[C@H]2NC(=O)c2ccc(OC(F)(F)F)cc2)c(F)c1` (stereo partly shown) [Example 89], the EC50 came to 45 nM in test [1] and 2.4 nM in test [2].
For the molecule `COc1cc(F)c([C@@H]2CN(c3c(C)ccn(CC(F)F)c3=O)C(=O)[C@H]2NC(=O)c2ccc(OC(F)F)cc2)c(F)c1` [Example 90], the EC50 in test [1] came to 3.5 nM; in test [2], 2.5 nM.
In the case of `COc1ccc([C@@H]2CN(c3cccn(CC(F)F)c3=O)C(=O)[C@H]2NC(=O)c2ccc(OC(F)F)cc2)cc1` [Example 91], the EC50 in test [1] worked out at 16 nM; in test [2] it was 2.6 nM.
`COCC(C(=O)N(C)C)n1cccc(N2C[C@@H](c3c(F)cc(OC)cc3F)[C@H](NC(=O)c3ccc(OC(F)F)cc3)C2=O)c1=O` (stereo partly shown) [Example 92]: the values for the EC50 in test [1] and in test [2] were 3.6 nM and 2.6 nM, respectively.
For the molecule `CCn1cccc(N2C(=O)[C@@H](NC(=O)c3ccc(OC(F)(F)F)cc3)[C@H](c3c(F)cc(OC)cc3F)[C@@H]2C)c1=O` [Example 93], the results for the EC50 in test [1] and in test [2] were 68 nM and 2.6 nM, respectively.
Turning to `COc1cc(F)c([C@@H]2CN(c3cccn(C(F)F)c3=O)C(=O)[C@H]2NC(=O)c2ccc(Cl)cc2)c(F)c1` [Example 94], the EC50 in test [1] was found to be 95 nM; in test [2], 2.7 nM.
`COc1cc(F)c([C@@H]2CN(c3ccc[nH]c3=O)C(=O)[C@H]2NC(=O)c2ccc(OC(F)F)cc2)c(F)c1` [Example 95]: the EC50 in test [1] amounted to 160 nM; in test [2], 2.7 nM.
Regarding `COc1cc(F)c([C@@H]2CN(c3cccn(CC4CC(F)(F)C4)c3=O)C(=O)[C@H]2NC(=O)c2ccc(OC(F)F)cc2)c(F)c1` [Example 96], the EC50 came out at 46 nM in test [1] and 2.7 nM in test [2].
Take `COc1cc(F)c([C@@H]2CN(c3cccn(CCN(C)C)c3=O)C(=O)[C@H]2NC(=O)c2ccc(OC(F)F)cc2)c(F)c1` [Example 97]: the EC50 in test [1] is 350 nM; in test [2], 2.7 nM.
With `CCn1cccc(N2C[C@@H](c3c(F)cc(OC)cc3F)[C@H](NC(=O)c3ccc(Cl)cc3)C2=O)c1=O` [Example 98], the figures for the EC50 in test [1] and in test [2] were 43 nM and 2.7 nM, respectively.
Regarding `COc1cc(F)c([C@@H]2CN(c3cccn(CCN4CCOCC4)c3=O)C(=O)[C@H]2NC(=O)c2ccc(OC(F)F)cc2)c(F)c1` [Example 99], the EC50 in test [1] turned out to be 330 nM; in test [2], 2.7 nM.
For `COCCn1cccc(N2C(=O)[C@@H](NC(=O)c3ccc(OC(F)(F)F)cc3)[C@H](c3c(F)cc(OC)cc3F)[C@@H]2C)c1=O` [Example 100], the EC50 in test [1] turned out to be 22 nM; in test [2], 2.7 nM.
With `O=C(N[C@@H]1C(=O)N(c2cccn(CCO)c2=O)C[C@H]1c1ccc(Cl)cc1)c1ccc(OC(F)(F)F)cc1` [Example 102], the EC50 turned out to be 4.7 nM in test [1] and 2.8 nM in test [2].
As for `COc1cc(F)c([C@@H]2CN(c3cccn(CC(C)OC)c3=O)C(=O)[C@H]2NC(=O)c2ccc(OC(F)(F)F)cc2)c(F)c1` (stereo partly shown) [Example 103], the EC50 in test [1] was found to be 1.9 nM; in test [2] it was 2.8 nM.
The matching figures for `COc1cc(F)c([C@@H]2CN(c3cccn(CC(C)O)c3=O)C(=O)[C@H]2NC(=O)c2ccc(OC(F)F)cc2)c(F)c1` (stereo partly shown) [Example 104]: 120 nM and 2.9 nM.
On to `COCCn1cccc(N2C(=O)[C@@H](NC(=O)c3ccc(OC(F)F)cc3)[C@H](c3c(F)cc(OC)cc3F)[C@@H]2C)c1=O` [Example 105], for which the EC50 in test [1] came out at 65 nM; in test [2], 2.9 nM.
As to `COc1cc(NCCO)nc(N2C[C@@H](c3c(F)cc(OC)cc3F)[C@H](NC(=O)c3ccc(Cl)cc3)C2=O)c1` [Example 106], the EC50 worked out at 870 nM in test [1] and 2.9 nM in test [2].
For the molecule `COCCn1cccc(N2C[C@@H](c3ccc(Cl)cc3)[C@H](NC(=O)c3ccc(OC(F)(F)F)cc3)C2=O)c1=O` [Example 107], the results for the EC50 in test [1] and in test [2] were 5.7 nM and 2.9 nM, respectively.
Consider `COc1ccc([C@@H]2CN(c3c(C)ccn(CCO)c3=O)C(=O)[C@H]2NC(=O)c2ccc(OC(F)(F)F)cc2)cc1` [Example 108], for which the figures for the EC50 in test [1] and in test [2] were 0.4 nM and 2.9 nM, respectively.
`COc1cc(F)c([C@@H]2CN(c3nccc(N4C[C@@H](C)N(C)[C@@H](C)C4)c3C(F)(F)F)C(=O)[C@H]2NC(=O)c2ccc(OC(F)F)cc2)c(F)c1` [Example 109]: the EC50 worked out at 500 nM in test [1] and 2.9 nM in test [2].
The matching figures for `O=C(N[C@@H]1C(=O)N(c2cccn(CCO)c2=O)C[C@H]1c1ccc(Cl)cc1)c1ccc(OC(F)F)cc1` [Example 110]: 20 nM and 2.9 nM.
With `COc1cc(F)c([C@@H]2CN(c3nc(C)ccc3F)C(=O)[C@H]2NC(=O)c2ccc(Cl)cc2)c(F)c1` [Example 111], the EC50 in test [1] came out at 1100 nM; in test [2], 3 nM.
Turning to `COCC(CO)n1ccc(C)c(N2C[C@@H](c3c(F)cc(OC)cc3F)[C@H](NC(=O)c3ccc(OC(F)F)cc3)C2=O)c1=O` (stereo partly shown) [Example 112], the EC50 in test [1] amounted to 2.8 nM; in test [2], 3 nM.
Take `COCCn1cccc(N2C[C@@H](c3c(F)cc(OC)cc3F)[C@H](NC(=O)c3ccc(OC(F)F)cc3)C2=O)c1=O` [Example 113]: the results for the EC50 in test [1] and in test [2] were 16 nM and 3 nM, respectively.
Turning to `COc1cc(F)c([C@@H]2CN(c3nc(N(C)C(C)=O)ccc3F)C(=O)[C@H]2NC(=O)c2ccc(OC(F)(F)F)cc2)c(F)c1` [Example 114], the EC50 was found to be 5.9 nM in test [1] and 3 nM in test [2].
For `COc1cc(F)c([C@@H]2CN(c3c(C)ccn(CCO)c3=O)C(=O)[C@H]2NC(=O)c2ccc(OC(F)(F)F)cc2)c(F)c1` [Example 115], the EC50 came to 2.4 nM in test [1] and 3.1 nM in test [2].
Consider `COc1cc(F)c([C@@H]2CN(c3cccn(C4CC4)c3=O)C(=O)[C@H]2NC(=O)c2ccc(C(F)(F)F)cc2)c(F)c1` [Example 116], for which the results for the concentration giving a half-maximal response (EC50) in test [1] and in test [2] were 34 nM and 3.1 nM, respectively.
Regarding `COc1cc(F)c([C@@H]2CN(c3nc(N4CC(F)(F)C4)ccc3F)C(=O)[C@H]2NC(=O)c2ccc(OC(F)F)cc2)c(F)c1` [Example 117], the results for the EC50 in test [1] and in test [2] were 210 nM and 3.1 nM, respectively.
The matching figures for `COCC(CO)n1cccc(N2C[C@@H](c3ccc(Cl)cc3)[C@H](NC(=O)c3ccc(OC(F)F)cc3)C2=O)c1=O` (stereo partly shown) [Example 118]: 4.1 nM and 3.1 nM.
In the case of `COc1cc(F)c([C@@H]2CN(c3nc(N4C(=O)C5CCCC54)ccc3F)C(=O)[C@H]2NC(=O)c2ccc(OC(F)F)cc2)c(F)c1` (stereo partly shown) [Example 119], the results for the EC50 in test [1] and in test [2] were 67 nM and 3.1 nM, respectively.
In the case of `COc1ccc([C@@H]2CN(c3cccn(CC(F)F)c3=O)C(=O)[C@H]2NC(=O)c2ccc(OC(F)(F)F)cc2)cc1` [Example 120], the EC50 in test [1] was determined as 13 nM; in test [2], 3.1 nM.
The matching figures for `COc1ccc([C@@H]2CN(c3c(C)ccn(CC(F)F)c3=O)C(=O)[C@H]2NC(=O)c2ccc(OC(F)(F)F)cc2)cc1` [Example 121]: 1.4 nM and 3.1 nM.
Turning to `COc1cc(F)c([C@@H]2CN(c3nc(NC4CCOC4)ccc3F)C(=O)[C@H]2NC(=O)c2ccc(OC(F)F)cc2)c(F)c1` (stereo partly shown) [Example 122], the results for the EC50 in test [1] and in test [2] were 1080 nM and 3.2 nM, respectively.
Consider `COc1cc(F)c([C@@H]2CN(c3cccnc3OC(F)F)C(=O)[C@H]2NC(=O)c2ccc(Cl)cc2)c(F)c1` [Example 123], for which the EC50 was determined as 41 nM in test [1] and 3.2 nM in test [2].
As to `COc1cc(F)c([C@@H]2CN(c3nc(N4CC(C)OCC4=O)ccc3F)C(=O)[C@H]2NC(=O)c2ccc(OC(F)(F)F)cc2)c(F)c1` (stereo partly shown) [Example 124], the EC50 was found to be 47 nM in test [1] and 3.3 nM in test [2].
With `COc1cc(F)c([C@@H]2CN(c3nccc(NC4CCOC4)c3C(F)(F)F)C(=O)[C@H]2NC(=O)c2ccc(Cl)cc2)c(F)c1` (stereo partly shown) [Example 125], the EC50 is 1100 nM in test [1] and 3.3 nM in test [2].
On to `COc1cc(F)c([C@H]2[C@H](NC(=O)c3ccc(OC(F)F)cc3)C(=O)N(c3ncccc3OC(C)C)[C@H]2C)c(F)c1` [Example 126], for which the EC50 in test [1] is 2300 nM; in test [2], 3.3 nM.
As for `COCCn1cccc(N2C(=O)[C@@H](NC(=O)c3ccc(OC(F)F)cc3)[C@H](c3c(F)cc(OC)cc3F)[C@H]2C)c1=O` [Example 127], the EC50 in test [1] was found to be 390 nM; in test [2], 3.3 nM.
The matching figures for `CCn1cccc(N2C[C@@H](c3ccc(OC)cc3)[C@H](NC(=O)c3ccc(OC(F)(F)F)cc3)C2=O)c1=O` [Example 128]: 6.3 nM and 3.3 nM.
With `COc1cc(F)c([C@@H]2CN(c3nccc(NCC(C)O)c3C(F)(F)F)C(=O)[C@H]2NC(=O)c2ccc(OC(F)F)cc2)c(F)c1` (stereo partly shown) [Example 129], the results for the EC50 in test [1] and in test [2] were 380 nM and 3.3 nM, respectively.
Consider `COc1cc(F)c([C@@H]2CN(c3cccn(CCO)c3=O)C(=O)[C@H]2NC(=O)c2ccc(Cl)cc2)c(F)c1` [Example 130], for which the EC50 is 340 nM in test [1] and 3.4 nM in test [2].
On to `COCC(C(=O)N1CCOCC1)n1ccc(C)c(N2C[C@@H](c3c(F)cc(OC)cc3F)[C@H](NC(=O)c3ccc(OC(F)F)cc3)C2=O)c1=O` (stereo partly shown) [Example 131], for which the EC50 came to 0.8 nM in test [1] and 3.4 nM in test [2].
For `COc1ccc([C@@H]2CN(c3c(C)ccn(C4CCOC4)c3=O)C(=O)[C@H]2NC(=O)c2ccc(OC(F)(F)F)cc2)cc1` (stereo partly shown) [Example 132], the EC50 was 0.8 nM in test [1] and 3.4 nM in test [2].
Consider `COCC(CO)n1cccc(N2C[C@@H](c3c(F)cc(OC)cc3F)[C@H](NC(=O)c3ccc(OC(F)F)cc3)C2=O)c1=O` (stereo partly shown) [Example 133], for which the values for the EC50 in test [1] and in test [2] were 12 nM and 3.4 nM, respectively.
